From patent publication US9510595B2, “Pesticidal mixtures” (Syngenta Participations AG, priority 2012, dated 2016) come the findings set out here.

In test [1] the test system is Heliothis virescens (Tobacco Budworm). The test is described as follows: Heliothis virescens egg/larval mortality on artificial diet, 24-well plate. Type of test: in vivo. The note with it: for 1-1 observed control %: 1-1 alone; for 2-7 Observe control %: 2-7 alone; for DMET observed control %: DMET alone; for SPAT observed control %: SPAT alone. On the procedure: Heliothis virescens (Tobacco Budworm)
Eggs (0-24 h old) are placed in 24-well microtiter plate on artificial diet and treated with test solutions (DMSO) by pipetting. After an incubation period of 4 days, samples are checked for larval mortality.
(§1) When a compound applied alone gave no control at a particular rate, it is assumed that lower rates of that compound alone also give no control. DMET=deltamethrin, SPAT=spirotetramat, 1-1 is compound 1 in Table 1, 2-7 is compound 7 in Table 2.

Test [2] relates to Tetranychus urticae (Two-Spotted Spider Mite). The test is described as follows: Tetranychus urticae mixed population mortality on sprayed bean leaf discs. The test is classed as in vivo. Conditions: for 2-7 observed control %: 2-7 alone; for SPAT observed control %: SPAT alone.
From the text: Tetranychus urticae (Two-Spotted Spider Mite)
Bean leaf discs on agar in 24-well microtiter plates are sprayed with test solutions (DMSO). After drying, the leaf discs are infested with mite populations of mixed ages. 8 days later, discs are checked for mixed population mortality.
as §1

With `N#Cc1cc(C2=NOC(c3cc(Cl)cc(Cl)c3)(C(F)(F)F)C2)ccc1-n1cncn1` (racemic) [1-1], the “1-1 observed control %” value worked out at 0% in test [1] (0.78 ppm); 0% in test [1] (1.56 ppm); 45% in test [1] (3.125 ppm); 85% in test [1] (6.25 ppm); 85% in test [1] (12.5 ppm); 90% in test [1] (25 ppm).

As to `N#Cc1cc(C2=NCC(c3cc(Cl)c(Cl)c(Cl)c3)(C(F)(F)F)C2)ccc1-n1cncn1` (racemic) [2-7], the “2-7 Observe control %” value in test [1] (0.025 ppm) is on record as 0%; in test [1] (0.05 ppm), 10%; in test [1] (0.1 ppm), 55%; in test [1] (0.2 ppm) it was 80%; in test [1] (0.4 ppm) it was 90%. The “2-7 observed control %” value in test [2] (0.187 ppm) turned out to be 0%; in test [2] (0.375 ppm), 0%; in test [2] (0.75 ppm), 25%; in test [2] (1.5 ppm) it was 75%; in test [2] (3.0 ppm) it was 80%.

Turning to `CC1(C)[C@H](C(=O)O[C@H](C#N)c2cccc(Oc3ccccc3)c2)[C@@H]1C=C(Br)Br` [DMET, deltamethrin], the “DMET observed control %” value in test [1] (0.0125 ppm), in test [1] (0.025 ppm), in test [1] (0.05 ppm), in test [1] (0.1 ppm), in test [1] (0.2 ppm) and in test [1] (0.4 ppm) was 0% throughout. Also, the “DMET observed control %” value in test [1] (0.8 ppm) was determined as 0%.

Regarding `CCOC(=O)OC1=C(c2cc(C)ccc2C)C(=O)N[C@]12CC[C@@H](OC)CC2` [SPAT, spirotetramat], the “SPAT observed control %” value in test [1] (1.56 ppm), in test [1] (3.12 ppm), in test [1] (3.125 ppm), in test [1] (6.25 ppm), in test [1] (12.5 ppm) and in test [1] (25 ppm) was 0% in each case. The “SPAT observed control %” value came to 0% in test [1] (50 ppm); 0% in test [1] (100 ppm); 60% in test [1] (200 ppm); 0% in test [2] (1.56 ppm); 0% in test [2] (3.125 ppm); 65% in test [2] (12.5 ppm). The “SPAT observed control %” value is given as 80% in test [2] (25 ppm), 85% in test [2] (50 ppm), 85% in test [2] (100 ppm) and 85% in test [2] (200 ppm).
